pIC50: −log10 of the molar value.
target: LRRK2(G2019S mutation, GST-LRRK2(amino acids 970-2527)) (Homo sapiens (Human), UniProt Q5S007, G2019S); experiment: LRRK2 Km ATP LanthaScreen Assay; format: biochemical; conditions: Examples N1-N25
Method in brief: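 TR-FRET: GST-LRRK2 970-2527 G2019S (2.5 nM solution) preincubated 30 min with compound (98 μM top, 1:2.15 dilutions), then 800 nM fluorescein-LRRKtide and 184 μM ATP solution added for 60 min at room temperature in Tris pH 8.5 buffer. Stopped with EDTA and Tb anti-phospho-LRRKtide antibody; IC50 is a mean of several tests.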

Sequence of LRRK2(G2019S mutation, GST-LRRK2(amino acids 970-2527)) (Q5S007 970-2527 G2019S): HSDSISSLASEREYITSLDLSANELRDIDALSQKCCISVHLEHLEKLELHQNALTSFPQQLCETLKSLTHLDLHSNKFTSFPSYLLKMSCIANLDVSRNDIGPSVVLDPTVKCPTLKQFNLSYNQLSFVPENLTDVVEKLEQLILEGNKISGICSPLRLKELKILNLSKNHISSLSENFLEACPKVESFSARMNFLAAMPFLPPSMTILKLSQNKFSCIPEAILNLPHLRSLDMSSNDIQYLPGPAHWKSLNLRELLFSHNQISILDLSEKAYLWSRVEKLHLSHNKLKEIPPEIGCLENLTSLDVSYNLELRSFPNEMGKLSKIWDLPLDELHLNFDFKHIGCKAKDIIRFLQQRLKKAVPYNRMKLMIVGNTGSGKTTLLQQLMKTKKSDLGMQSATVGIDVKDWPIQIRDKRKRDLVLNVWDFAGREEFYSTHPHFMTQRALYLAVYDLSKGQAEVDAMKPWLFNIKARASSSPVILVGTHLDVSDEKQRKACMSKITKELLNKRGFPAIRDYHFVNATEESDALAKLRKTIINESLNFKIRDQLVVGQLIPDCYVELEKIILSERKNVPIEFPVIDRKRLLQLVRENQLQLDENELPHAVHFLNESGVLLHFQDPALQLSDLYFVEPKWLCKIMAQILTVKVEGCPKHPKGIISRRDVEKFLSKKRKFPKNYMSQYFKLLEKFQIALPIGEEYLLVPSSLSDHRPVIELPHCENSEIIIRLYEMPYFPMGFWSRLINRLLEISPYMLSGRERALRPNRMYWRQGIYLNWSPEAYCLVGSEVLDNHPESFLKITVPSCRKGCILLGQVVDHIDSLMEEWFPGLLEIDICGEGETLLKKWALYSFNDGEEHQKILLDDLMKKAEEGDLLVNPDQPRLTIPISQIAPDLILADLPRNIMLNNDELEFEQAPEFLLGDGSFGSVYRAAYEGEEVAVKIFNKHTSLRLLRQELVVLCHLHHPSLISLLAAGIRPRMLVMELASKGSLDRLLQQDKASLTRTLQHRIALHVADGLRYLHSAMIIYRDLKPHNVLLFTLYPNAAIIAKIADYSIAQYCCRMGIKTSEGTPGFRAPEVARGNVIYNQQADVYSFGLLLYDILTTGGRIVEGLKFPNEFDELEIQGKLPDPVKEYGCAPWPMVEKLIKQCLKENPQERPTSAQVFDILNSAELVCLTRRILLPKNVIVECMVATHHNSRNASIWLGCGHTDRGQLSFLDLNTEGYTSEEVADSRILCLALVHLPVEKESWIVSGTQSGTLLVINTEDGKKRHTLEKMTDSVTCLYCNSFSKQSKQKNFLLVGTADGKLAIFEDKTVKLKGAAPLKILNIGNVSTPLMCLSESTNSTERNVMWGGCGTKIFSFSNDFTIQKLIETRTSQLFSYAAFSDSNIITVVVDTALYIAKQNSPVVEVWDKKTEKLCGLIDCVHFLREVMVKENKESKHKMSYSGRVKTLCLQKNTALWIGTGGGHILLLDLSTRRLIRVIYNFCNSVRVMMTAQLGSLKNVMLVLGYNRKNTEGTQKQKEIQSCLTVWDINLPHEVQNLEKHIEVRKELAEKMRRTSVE

Point of comparison: `CC(C)Oc1cc2c(-c3cc(N4C5CCC4COC5)ncn3)n[nH]c2cc1F` [Example N11], pIC50 7.74. Against it:
- CC(C)Oc1cc2c(-c3cc(N4CCN(CCCO)CC4)ncn3)n[nH]c2cc1F [Example N23] — 0.77 log units higher, 8.51
- CC(C)Oc1cc2c(-c3cc(N4CCC(F)(C#N)CC4)ncn3)n[nH]c2cc1F [Example N16] — within 0.2 log units, 7.75
- CC(C)Oc1cc2c(-c3cc(N4CCc5oncc5C4)ncn3)n[nH]c2cc1F [Example N10] — 0.27 log units higher, 8.01
- CO[C@H]1CN(c2cc(-c3n[nH]c4cc(F)c(OC(C)C)cc34)ncn2)C[C@@H]1O [Example N17] — 0.37 log units higher, 8.11

same assay, conditions: Examples O1-O23

Point of comparison: `COC[C@H](C)Oc1ccc2[nH]nc(-c3cc(N4CCCC(F)(F)C4)ncn3)c2c1` [Example O4], pIC50 8.55. Against it:
- COC[C@H](C)Oc1ccc2[nH]nc(-c3cc(N4CCn5ncnc5C4)ncn3)c2c1 [Example O1] — 0.86 log units lower, 7.69
- COC[C@H](C)Oc1ccc2[nH]nc(-c3cc(N4CCC(F)(F)C4)ncn3)c2c1 [Example O8] — 0.65 log units lower, 7.90
- COC[C@H](C)Oc1ccc2[nH]nc(-c3cc(N4[C@H](C)COC[C@@H]4C)ncn3)c2c1 [Example O15] — 0.42 log units lower, 8.13

same assay, conditions: Examples P1-P18

Point of comparison: `N#Cc1ccc(-c2ccc3[nH]nc(-c4cc(N5CCOCC5)ncn4)c3c2)cc1` [Example P6], pIC50 6.82. Against it:
- Cc1nocc1-c1ccc2[nH]nc(-c3cc(N4CCOCC4)ncn3)c2c1 [Example P15] — 0.41 log units higher, 7.23
- COCCn1cc(-c2ccc3[nH]nc(-c4cc(N5CCOCC5)ncn4)c3c2)cn1 [Example P16] — 2.00 log units higher, 8.82
- c1cc(-c2ccc3[nH]nc(-c4cc(N5CCOCC5)ncn4)c3c2)ccn1 [Example P3] — within 0.2 log units, 7.01
- N#Cc1cc(-c2ccc3[nH]nc(-c4cc(N5CCOCC5)ncn4)c3c2)ccn1 [Example P1] — 0.35 log units lower, 6.47
- N#Cc1cccc(-c2ccc3[nH]nc(-c4cc(N5CCOCC5)ncn4)c3c2)c1 [Example P7] — 0.27 log units higher, 7.09

same assay, conditions: Examples Q1-Q20

Point of comparison: `Cc1cncc(-c2ccc3[nH]nc(-c4cc(N5C[C@@H](C)O[C@@H](C)C5)ncn4)c3c2)c1` [Example Q4], pIC50 8.66. Against it:
- Cc1ncc(-c2ccc3[nH]nc(-c4cc(N5C[C@@H](C)O[C@@H](C)C5)ncn4)c3c2)nc1C [Example Q12] — 0.90 log units lower, 7.76
- COc1cncc(-c2ccc3[nH]nc(-c4cc(N5C[C@@H](C)O[C@@H](C)C5)ncn4)c3c2)n1 [Example Q10] — within 0.2 log units, 8.62

same assay, conditions: Km ATP (184 μM ATP solution), G2019S LRRK2, mean IC50

Point of comparison: `Cn1cc(-c2cc3c(-c4cc(N5CCN(C6CC6)CC5)ncn4)n[nH]c3cc2F)cn1` [Example L11], pIC50 7.75. Against it:
- CC(C)Oc1ccc2[nH]nc(-c3cc(N4CCOC5(CC5)C4)ncn3)c2c1 [Example D12] — 0.64 log units higher, 8.39
- CC(C)Oc1ccc2[nH]nc(-c3cc(N4CCC5(CCCO5)CC4)ncn3)c2c1 [Example D49] — 0.63 log units higher, 8.38
- CCOc1ccc2[nH]nc(-c3cc(N4CCO[C@H](C)C4)ncn3)c2c1 [Example F12] — 0.23 log units higher, 7.98
- CCOc1ccc2[nH]nc(-c3cc(N4CCNC(=O)C4)ncn3)c2c1 [Example F6] — 0.56 log units lower, 7.19
- Cn1cc(-c2ccc3[nH]nc(-c4cc(N5CCc6nccnc6C5)ncn4)c3c2)cn1 [Example M28] — 0.82 log units higher, 8.57
- Cn1cc(-c2cc3c(-c4cc(N5CCc6oncc6C5)ncn4)n[nH]c3cc2F)cn1 [Example L10] — 1.41 log units lower, 6.34
- COC[C@H](C)Oc1ccc2[nH]nc(-c3cc(N4CC[C@@H](OC)C4)ncn3)c2c1 [Example H12] — 0.57 log units higher, 8.32
- Cn1cc(-c2ccc3[nH]nc(-c4cc(N5CCC(F)(C#N)CC5)ncn4)c3c2)cn1 [Example M27] — 0.77 log units higher, 8.52
- COC[C@H](C)Oc1ccc2[nH]nc(-c3cc(N4CCN(C)CC4)ncn3)c2c1 [Example H7] — 0.93 log units higher, 8.68
- CC(C)Oc1ccc2[nH]nc(-c3cc(N4C=CSCC4)ncn3)c2c1 [Example D27] — 0.47 log units higher, 8.22
- C[C@H]1CN(c2cc(-c3n[nH]c4ccc(-c5cnn(C)c5)cc34)ncn2)CCO1 [Example M12] — 0.91 log units higher, 8.66
- COCCOc1ccc2[nH]nc(-c3cc(N4CC5CCC(C4)O5)ncn3)c2c1 [Example G12] — 0.94 log units lower, 6.81
- CC(C)Oc1ccc2[nH]nc(-c3cc(N4C[C@H](F)[C@@H](F)C4)ncn3)c2c1 [Example J10] — 0.20 log units higher, 7.95
- CO[C@@H]1CN(c2cc(-c3n[nH]c4cc(F)c(-c5cnn(C)c5)cc34)ncn2)C[C@H]1O [Example L20] — 0.31 log units lower, 7.44
- CC(C)Oc1cc2c(-c3cc(N4C[C@H](F)[C@@H](F)C4)ncn3)n[nH]c2cc1F [Example D35] — 0.57 log units higher, 8.32
- CS(=O)(=O)N1CCN(c2cc(-c3n[nH]c4ccc(-c5cnccn5)cc34)ncn2)CC1 [Example I2] — within 0.2 log units, 7.72
- Cn1cc(-c2ccc3[nH]nc(-c4cc(N5C[C@H](F)[C@@H](F)C5)ncn4)c3c2)cn1 [Example M13] — 0.67 log units higher, 8.42
- CS(=O)(=O)N1CCN(c2cc(-c3n[nH]c4ccc(-c5cccnc5)cc34)ncn2)CC1 [Example T2] — 0.39 log units higher, 8.14
- CCN1CCN(c2cc(-c3n[nH]c4ccc(OC)cc34)ncn2)CC1=O [Example E11] — 0.64 log units lower, 7.11
- CC(C)Oc1ccc2[nH]nc(-c3cc(N4CCN(C(=O)C5CC5)CC4)ncn3)c2c1 [Example D22] — 0.63 log units higher, 8.38
- CC(O)C1CCN(c2cc(-c3n[nH]c4ccc(-c5cnn(C)c5)cc34)ncn2)C1 (stereo not drawn) [Example M6] — 0.89 log units higher, 8.64
- Cn1cc(-c2cc3c(-c4cc(N5CCC(F)(CO)CC5)ncn4)n[nH]c3cc2F)cn1 [Example L23] — within 0.2 log units, 7.82
- CCCN1CCN(c2cc(-c3n[nH]c4ccc(OC(C)C)cc34)ncn2)CC1 [Example D14] — 0.34 log units higher, 8.09
- CC(C)Oc1ccc2[nH]nc(-c3cc(N4CCN(C)C(=O)C4)ncn3)c2c1 [Example D9] — 0.20 log units higher, 7.95
- COCCN1CCN(c2cc(-c3n[nH]c4cc(F)c(OC(C)C)cc34)ncn2)CC1=O [Example D71] — 1.04 log units higher, 8.79
- CO[C@H]1CN(c2cc(-c3n[nH]c4ccc(OC(C)C)cc34)ncn2)C[C@@H]1O [Example D1] — 0.25 log units higher, 8.00
- COCCN1CCN(c2cc(-c3n[nH]c4ccc(OC(C)C)cc34)ncn2)CC1=O [Example D21] — 0.50 log units higher, 8.25
- CC(C)Oc1ccc2[nH]nc(-c3cc(N4CCN(c5ncccn5)CC4)ncn3)c2c1 [Example K7] — within 0.2 log units, 7.93
- Cn1cc(-c2cc3c(-c4cc(N5CCCC6(CCO6)C5)ncn4)n[nH]c3cc2F)cn1 (stereo not drawn) [Example L15] — 1.35 log units lower, 6.40
- Cn1cc(-c2ccc3[nH]nc(-c4cc(N5CCC(F)(F)CC5)ncn4)c3c2)cn1 [Example M21] — 0.59 log units higher, 8.34
- COCCOc1ccc2[nH]nc(-c3cc(N4C[C@H](F)[C@@H](F)C4)ncn3)c2c1 [Example G3] — 0.89 log units lower, 6.86
- CCOc1ccc2[nH]nc(-c3cc(N4CC5CCC(C4)O5)ncn3)c2c1 [Example F10] — 0.26 log units lower, 7.49
- CC(C)Oc1cc2c(-c3cc(N4CC[C@H](N)C4)ncn3)n[nH]c2cc1F [Example D59] — 0.23 log units higher, 7.98
- Cn1cc(-c2cc3c(-c4cc(N5CCCC(F)(F)C5)ncn4)n[nH]c3cc2F)cn1 [Example L3] — within 0.2 log units, 7.63
- COC[C@@H](C)Oc1ccc2[nH]nc(-c3cc(N4C[C@@H](C)O[C@@H](C)C4)ncn3)c2c1 [Example H2] — 0.34 log units lower, 7.41
- C[C@@H]1CN(c2cc(-c3n[nH]c4ccc(-c5cnn(C)c5)cc34)ncn2)CCO1 [Example M9] — 0.97 log units higher, 8.72
- COCCOc1ccc2[nH]nc(-c3cc(N4CCN(S(C)(=O)=O)CC4)ncn3)c2c1 [Example G1] — 0.56 log units lower, 7.19
- COCCOc1ccc2[nH]nc(-c3cc(N4CCNC(=O)C4)ncn3)c2c1 [Example G6] — 0.88 log units lower, 6.87
- C[C@@H]1CN(c2cc(-c3n[nH]c4cc(F)c(-c5cnn(C)c5)cc34)ncn2)CCO1 [Example L13] — within 0.2 log units, 7.69
- [2H]C1([2H])OC([2H])([2H])C([2H])([2H])N(c2cc(-c3n[nH]c4ccc(OC(C)C)cc34)ncn2)C1([2H])[2H] [Example D11] — 0.40 log units higher, 8.15
- COCCNc1cc(-c2n[nH]c3ccc(OC(C)C)cc23)ncn1 [Example D16] — within 0.2 log units, 7.58
- c1cnc(-c2ccc3[nH]nc(-c4cc(N5CCOCC5)ncn4)c3c2)cn1 [Example I1] — 0.29 log units lower, 7.46
- Cn1cc(-c2cc3c(-c4cc(N5CC[C@H](CO)C5)ncn4)n[nH]c3cc2F)cn1 [Example L5] — 0.32 log units lower, 7.43
- Cn1cc(-c2ccc3[nH]nc(-c4cc(N5CCC(n6cccn6)C5)ncn4)c3c2)cn1 (stereo not drawn) [Example M22] — 0.69 log units higher, 8.44
- Cn1cc(-c2cc3c(-c4cc(N5CC[C@@H](CO)C5)ncn4)n[nH]c3cc2F)cn1 [Example L4] — 0.32 log units lower, 7.43
- COc1ccc2[nH]nc(-c3cc(N4CCN(S(C)(=O)=O)CC4)ncn3)c2c1 [Example E4] — 0.30 log units lower, 7.45
- CC(C)Oc1ccc2[nH]nc(-c3cc(N4CCc5oc(C6CC6)nc5C4)ncn3)c2c1 [Example J14] — 0.23 log units lower, 7.52
- CC(C)Cc1ccc2[nH]nc(-c3cc(N4CCOCC4)ncn3)c2c1 [V] — 0.50 log units lower, 7.25
- CC(C)N1CCN(c2cc(-c3n[nH]c4ccc(-c5cnn(C)c5)cc34)ncn2)CC1 [Example A15] — 1.39 log units higher, 9.14
- Cn1cc(-c2cc3c(-c4cc(N5CCC(n6cccn6)C5)ncn4)n[nH]c3cc2F)cn1 (stereo not drawn) [Example L16] — 0.62 log units lower, 7.13
- COc1ccc2[nH]nc(-c3cc(N4CCN(C(C)=O)CC4)ncn3)c2c1 [Example E5] — 0.62 log units lower, 7.13
- CCOc1ccc2[nH]nc(-c3cc(N4C[C@@H](C)O[C@@H](C)C4)ncn3)c2c1 [Example F2] — within 0.2 log units, 7.89
- COc1ccc2[nH]nc(-c3cc(N4CC5CCC(C4)O5)ncn3)c2c1 [Example E6] — 0.92 log units lower, 6.83
- CC(C)Oc1ccc2[nH]nc(-c3cc(N4CCC(C#N)CC4)ncn3)c2c1 [Example K8] — 0.39 log units higher, 8.14

same assay, conditions: Table U

Point of comparison: `Cc1n[nH]c(C)c1-c1ccc2[nH]nc(-c3cc(N4CCOCC4)ncn3)c2c1` [Example U19], pIC50 8.59. Against it:
- FC1(F)CCN(c2cc(-c3n[nH]c4ccc(-c5ccsc5)cc34)ncn2)CC1 [Example U2] — 2.13 log units lower, 6.46
- Cc1ccc(-c2ccc3[nH]nc(-c4cc(N5CCOCC5)ncn4)c3c2)cc1 [Example U15] — 1.99 log units lower, 6.60
- Cc1ncc(-c2ccc3[nH]nc(-c4cc(N5CCOCC5)ncn4)c3c2)s1 [Example U10] — within 0.2 log units, 8.66
- CC(C)N1CCN(c2cc(-c3n[nH]c4ccc(-c5ccn[nH]5)cc34)ncn2)CC1 [Example U25] — within 0.2 log units, 8.63

— US9416126B2, “Compounds inhibiting leucine-rich repeat kinase enzyme activity” (Merck Sharp & Dohme Corp., priority 2013, dated 2016)
